Four molecules from patent US5688807A, “Method for treating 5HT2B receptor related conditions” (Eli Lilly and Company, priority 1995, dated 1997) can be followed below.

One assay has as its target T1, Human 5-HT2B (Homo sapiens, UniProt P41595).
T1 construct: expressed in transfected cells
Nature of the assay: [3H]Serotonin radioligand binding, human 5-HT2B.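 Further: competition of tritiated serotonin binding to cell membranes, bound radioactivity on filters counted by liquid scintillation, IC50 from logistic fits converted to Ki with the Cheng-Prusoff equation.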 As to conditions: Cell assays use Human Cells; read-out: Ki, 5HT2B Cells.

For a further assay, the target named is Human 5-HT2A (Homo sapiens, UniProt P28223). Kind of assay: [125I]DOI radioligand binding, human 5-HT2A.
The target in the next assay is T2, 5HT2C (Homo sapiens, UniProt P28335).
T2 construct: expressed in transfected cells
T2 sequence (P28335 33-458): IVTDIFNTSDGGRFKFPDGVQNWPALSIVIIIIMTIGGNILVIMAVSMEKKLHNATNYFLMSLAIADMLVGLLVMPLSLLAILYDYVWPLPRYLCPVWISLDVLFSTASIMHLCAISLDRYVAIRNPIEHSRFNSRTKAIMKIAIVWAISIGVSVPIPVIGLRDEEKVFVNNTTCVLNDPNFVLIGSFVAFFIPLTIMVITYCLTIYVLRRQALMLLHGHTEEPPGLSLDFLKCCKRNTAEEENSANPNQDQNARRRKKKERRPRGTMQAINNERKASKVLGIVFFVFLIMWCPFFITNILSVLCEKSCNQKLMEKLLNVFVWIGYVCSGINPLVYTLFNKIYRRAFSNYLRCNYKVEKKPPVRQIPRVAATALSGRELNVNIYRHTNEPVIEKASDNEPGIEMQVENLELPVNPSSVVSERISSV
Nature of the assay: Human cell assay, 5HT2C cells. The class given is binding. As to conditions: Cell assays use Human Cells. The protocol:
Compounds of this invention were tested using substantially the procedure describe in the Radioligand assay supra. and are summarized in Table I infra. The values in Table I are expressed as Ki values calculated as described supra. The blank values in Table I indicate that the compound was not tested in the corresponding assay.

The target of the next assay is rat 5-HT2B receptor (Rattus norvegicus, UniProt P30994). Kind of assay: biochemical. The class given is binding. As to conditions: Radioligand assay; Table III.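 Further: displacement of [3H]5-HT from membranes of suspension cells carrying cloned rat 5-HT2B receptor, incubated 15 min at 37 °C or 2 h at 0 °C, filter-bound radioactivity counted by scintillation.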
The next assay has as its system distal colon. Nature of the assay: Functional in vitro assay: antagonism of serotonin contraction of rat distal colon longitudinal muscle. The settings on record: vs serotonin. The text has this: Functional In vitro Assay:
Sprague-Dawley rats (200-250g; Laboratory Supply, Indianapolis, Ind.) were sacrificed by cervical dislocation and 8 cm segment of distal colon was removed and washed in ice cold modified Kreb's solution of the following composition (millimolar): Nacl, 118.2; Kcl, 4.6; Cacl2. H2 O, 1.6; KH2 PO4, 1.2; MgSO4, 1.2; dextrose, 10.0; and NaHCO3, 24.8. The colon was mounted on a glass rod and the longitudinal muscle layer with attached myenteric plexi was removed and mounted in organ baths, containing above described Kreb's solution maintained at 37° C. and equilibrated with 95% O2 and 5% CO2. Tissues were placed under 2 g tension and allowed to stabilize for 1 hour. Isometric contractions were recorded as changes in grams of force using grass FT03 transducers and MI^2 - computerized dynograph system. Cumulative concentration-response curves for serotonin were obtained by a stepwise increase in concentration after washing out the preceding concentration for 10-15 minutes. Each agonist concentration remained in contact with the tissue for 5 minutes. Maximum response to each concentration was determined and digitized. EC50 values were taken as the concentration of agonist that produced half maximal contraction. After control responses were obtained, tissues were incubated with an appropriate concentration of antagonist for 15 minutes. Response to serotonin were then repeated in the presence of an antagonist. Concentration-response utilized only one concentration of antagonist per tissue. Apparent antagonist dissociation constants (KB) were determined for each concentration of antagonist according to the following equation:
KB =[B]/(dose ratio-1), where [B] is the concentration of the antagonist and dose ratio is the ED50 of the agonist in the presence of antagonist divided by the control ED50. The results were expressed as the negative logarithm of the KB (i.e., -log KB) (Br. J. Pharmacol. Methods 4:4165, (1980).
The functional in vitro method described supra. was used to test compounds of this invention. Values are expressed as pKi and pA2 (-log KB). The following table illustrates the results obtained when the compounds were tested using the Radioligand assay supra. (pKi) and the functional in vitro method described supra. (pA2)

Another assay relates to colon. Kind of assay: In vivo inhibition of serotonin-induced colonic motility in anesthetized rats. As to conditions: Rattus norvegicus, iv; anesthetized Sprague-Dawley rats. The protocol: Sprague-Dawley Rats (250-300 g) were fasted overnight. The rats were anesthetized with urethane ([…]) delivered intraperitoneally. The abdominal cavity was opened and strain guage transducers were sewn on the antimesenteric border of the colon. The transducers were oriented to record circular muscle contractions. The animal body temperature was maintained by a heating pad. An intravenous catheter was inserted into the jugular vein for drug administration. The carotid blood pressure was also monitored. Output of the strain guage transducers was graphed on a Beckman Dynograph. Baseline motility was monitored for 30 minutes. At the end of the 30 minute period, a vehicle control dose was administered and motility was recorded for an additional 15 minutes. A serotonin dose response was developed. Successively higher doses of serotonin were administered at 15 minute intervals. An ED50 dose was calculated, which was the dose producing half maximal contraction. In antagonist experiments, historical ED50 dose was administered to validate the experimental set up. Next, a dose of antagonist was given. The motility was monitored for 15 minutes. […] Motility was evaluated by measuring the number of contractions and multiplying them by the amplitude of contractions over a set time period to provide a Motility Index. The percent inhibition was calculated from the vehicle (no antagonist) treated group. […]

Counter-ions that a name gives are not always drawn.

Chain of Human 5-HT2A (P28223 whole entry): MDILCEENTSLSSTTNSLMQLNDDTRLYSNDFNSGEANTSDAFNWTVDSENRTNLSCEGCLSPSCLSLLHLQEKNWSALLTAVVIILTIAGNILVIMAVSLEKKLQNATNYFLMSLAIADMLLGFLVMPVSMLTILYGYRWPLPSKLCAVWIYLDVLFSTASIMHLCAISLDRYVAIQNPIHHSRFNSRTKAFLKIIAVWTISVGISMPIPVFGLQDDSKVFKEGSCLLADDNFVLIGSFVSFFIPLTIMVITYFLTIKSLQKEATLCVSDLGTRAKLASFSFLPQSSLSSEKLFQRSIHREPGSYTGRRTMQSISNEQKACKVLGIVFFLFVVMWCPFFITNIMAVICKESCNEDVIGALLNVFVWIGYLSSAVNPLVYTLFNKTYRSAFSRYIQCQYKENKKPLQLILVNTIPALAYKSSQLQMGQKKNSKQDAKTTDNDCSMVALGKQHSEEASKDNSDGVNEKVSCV
T1 sequence (P41595 whole entry): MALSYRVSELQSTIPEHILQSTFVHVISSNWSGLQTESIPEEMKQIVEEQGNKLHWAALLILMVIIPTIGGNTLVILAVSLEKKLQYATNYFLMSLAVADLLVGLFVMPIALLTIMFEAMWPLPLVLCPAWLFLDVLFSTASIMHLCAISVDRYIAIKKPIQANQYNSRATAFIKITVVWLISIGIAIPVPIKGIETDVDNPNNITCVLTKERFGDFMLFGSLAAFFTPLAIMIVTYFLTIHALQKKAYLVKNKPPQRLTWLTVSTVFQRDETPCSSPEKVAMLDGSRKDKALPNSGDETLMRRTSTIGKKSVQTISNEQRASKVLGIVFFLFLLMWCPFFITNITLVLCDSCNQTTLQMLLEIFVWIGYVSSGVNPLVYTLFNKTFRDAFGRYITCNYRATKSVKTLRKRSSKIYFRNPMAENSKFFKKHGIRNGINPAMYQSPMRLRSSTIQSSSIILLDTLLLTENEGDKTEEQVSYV
Chain of rat 5-HT2B receptor (P30994 whole entry): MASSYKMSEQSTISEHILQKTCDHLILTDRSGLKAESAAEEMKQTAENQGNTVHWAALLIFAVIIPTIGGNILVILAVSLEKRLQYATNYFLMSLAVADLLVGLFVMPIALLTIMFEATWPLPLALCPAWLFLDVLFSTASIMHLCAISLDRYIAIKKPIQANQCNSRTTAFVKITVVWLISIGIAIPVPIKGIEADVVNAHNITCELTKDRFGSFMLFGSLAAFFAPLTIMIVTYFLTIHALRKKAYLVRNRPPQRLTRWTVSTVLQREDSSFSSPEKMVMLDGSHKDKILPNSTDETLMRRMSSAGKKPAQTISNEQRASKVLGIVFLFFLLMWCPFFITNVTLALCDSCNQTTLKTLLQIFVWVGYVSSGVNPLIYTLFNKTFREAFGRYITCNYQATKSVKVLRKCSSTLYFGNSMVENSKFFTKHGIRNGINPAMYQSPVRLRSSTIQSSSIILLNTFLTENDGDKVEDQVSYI

`Cc1ccc2[nH]c3c(c2c1)[C@@H]1CCCC[C@H]1NC3` (relative stereo) [Example 95, Trans-10-methyl-2,3,4,4a,5,6,7,11c-octahydro-1H-indolo[2,3c]quinoline, hydrochloride]: the Ki – broadly, the equilibrium dissociation constant of an inhibitor or competing ligand from its target – at Human 5-HT2B came to 840 nM; on Human 5-HT2A it was 3440 nM; on 5HT2C it was 2640 nM.
In the case of `COc1cc2c(cc1OC)CC1(CC2)N[C@@H]2CCCC[C@H]2c2c1[nH]c1ccc(C)cc21` (stereo partly drawn) [Example 107, Trans-spiro-6,6-[2-(3,4-dimethoxy)-1,2,3,4-tetrahydronaphthyl]-10-methyl-2,3,4,4a,5,6,7,11a-octahydro-1H-indolo[2,3-c]quinidine, hydrochloride], the values for the inhibition constant (Ki) on Human 5-HT2B, at Human 5-HT2A and at 5HT2C were 178 nM, 363 nM and 325 nM, respectively.
Taken in the same sequence, the figures for `Cc1ccc2[nH]c3c(c2c1)[C@@H]1CCCC[C@H]1NC3Cc1cccc2ccccc12` (stereo partly drawn) [Example 105, Trans-10-methyl-6-(1-naphthylmethyl)-2,3,4,4a,5,6,7,11c-octahydro-1H-indolo[2,3-c]quinoline, hydrochloride] were 22.1 nM, 86.5 nM and 195 nM.
For the molecule `Cc1cc(Br)c2[nH]c3c(c2c1)CCNC3` [Example 73, 6-methyl-8-bromo-1,2,3,4-tetrahydro-9H-pyrido[3,4b]-indole], the pKi (in general, −log10 of the Ki, conventionally taken in molar units) at rat 5-HT2B receptor worked out at 7.85. In addition, in the assay on distal colon, the “pA2 (-log KB)” value is reported as 8.9. The ED50 (in general, the midpoint of the dose-response relation) in the assay on colon was 3.2 mg/kg.
